Laboratory results taken from ChEMBL document CHEMBL1201862, “PubChem BioAssay data set” (2004).
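Values below derive from 48-hour exposures of cells grown in 96-well plates, with endpoints linearly interpolated between the two concentrations bracketing the appropriate inhibition level. GI50: concentration for 50% inhibition of growth.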 The source made the active and inactive calls. No stated cut-off is given here; in the data, active = GI50 up to about 1.1 µM and inactive = higher.

What was measured:
Experiment in all cases: NCI tumour cell line growth inhibition, 48 h
A498 = test system: A498
A549 = test system: A549
COLO 205 = test system: COLO 205
DU-145 = test system: DU-145
HL-60 = test system: HL-60
HT-29 = test system: HT-29
Hs-578T = test system: Hs-578T
IGROV-1 = test system: IGROV-1
MCF7 = test system: MCF7
NCI-H460 = test system: NCI-H460
OVCAR-3 = test system: OVCAR-3
OVCAR-4 = test system: OVCAR-4
PC-3 = test system: PC-3
RXF 393 = test system: RXF 393
SF-295 = test system: SF-295
SK-OV-3 = test system: SK-OV-3
SNB-19 = test system: SNB-19
SW-620 = test system: SW-620
UACC-257 = test system: UACC-257
UO-31 = test system: UO-31

Measured: GI50

O=C(Nc1ccc(Cl)cc1)c1cc(S(=O)(=O)Nc2nc3cccnc3[nH]2)c(SSc2cc(Cl)c(C(=O)Nc3ccc(Cl)cc3)cc2S(=O)(=O)Nc2nc3cccnc3[nH]2)cc1Cl
inactive: A498 > 100 µM | A549 > 100 µM | COLO 205 > 100 µM | DU-145 > 100 µM | HL-60 > 100 µM | HT-29 > 100 µM | Hs-578T > 100 µM | IGROV-1 > 100 µM | MCF7 > 100 µM | NCI-H460 > 100 µM | OVCAR-3 > 100 µM | OVCAR-4 > 100 µM | PC-3 > 100 µM | RXF 393 28.6 µM | SF-295 > 100 µM | SK-OV-3 > 100 µM | SNB-19 > 100 µM | SW-620 > 100 µM | UACC-257 > 100 µM | UO-31 > 100 µM

CC(=O)O[C@H]1CC[C@@]2(C)C(=CC[C@H]3[C@@H]4C/C(=C\c5ccncc5)[C@H](OC(C)=O)[C@@]4(C)CC[C@@H]32)C1
inactive: A498 12.9 µM | A549 6.08 µM | COLO 205 4.08 µM | DU-145 15.4 µM | HL-60 4.01 µM | HT-29 6.41 µM | Hs-578T 6.97 µM | IGROV-1 11.6 µM | MCF7 14.7 µM | NCI-H460 10.1 µM | OVCAR-3 11.3 µM | OVCAR-4 4.65 µM | PC-3 18.2 µM | RXF 393 2.73 µM | SF-295 5.02 µM | SK-OV-3 21.6 µM | SNB-19 8.61 µM | SW-620 4.14 µM | UACC-257 16.9 µM | UO-31 8.04 µM

CC1(C)CCC2(C(=O)OC3OC(CO)C(O)C(O)C3O)CCC3(CO)C(=CCC4C5(C)CC(O)C(O)C(C)(C(=O)OC6OC(CO)C(O)C(O)C6O)C5CCC43C)C2C1 (stereo not given)
inactive: A498 > 100 µM | A549 > 100 µM | COLO 205 > 100 µM | DU-145 > 100 µM | HL-60 39 µM | HT-29 > 100 µM | Hs-578T > 100 µM | IGROV-1 > 100 µM | MCF7 > 100 µM | NCI-H460 > 100 µM | OVCAR-3 > 100 µM | OVCAR-4 > 100 µM | PC-3 > 100 µM | RXF 393 > 100 µM | SF-295 > 100 µM | SK-OV-3 > 100 µM | SNB-19 > 100 µM | SW-620 > 100 µM | UACC-257 > 100 µM | UO-31 > 100 µM
